SMILES strings stand for the structures. Where two headings read alike, the source gives them in different places.

Series [1] concerns PBMC cells. The series is described as follows: Sulforhodamine B (SRB) assay, IC50 on PBMC. Format: cell-based, human. To be noted: read-out: IC50. The method, then:
(§1) The sulforhodamine B (SRB) assay^21 was used to determine the drug concentration that half of the cell growth/viability is inhibited (IC50). Cells were cultured in 96-well plates, with 5,000 cells in 100 μL of culture medium per well. The rest of the protocol was the same as described previously^22,23.
(§2) Data shown in Table 1 are IC50 values of VR23 and other compounds, which were determined using sulforhodamine B (SRB) assays on immunologically relevant cells (THP-1, SW-982 and PBMC). […] Two well-known proteasome inhibitors, BTZ and CFZ, were included for comparison since VR23 is also a proteasome inhibitor, albeit targeting different subunits^2. The widely used anti-inflammatory DEX was included, also for comparison.
(§3) THP-1, SW982 and PBMC cells (5,000 cells/well) were treated with each compound for 48 hours. The IC50, the drug concentration reducing cell growth/viability by 50%, was determined by a dose-response four-parameter curve (generated with GraphPad Prism V. 4.02) formed by 10 two-fold dilutions (n=3).

Series [2] has as its system IL-8 secretion in THP-1 cells. As to the kind of experiment: IL-8 secretion in TNF-α-stimulated THP-1 cells (ELISA). Format: cell-based, human. To be noted: THP-1, TNF-α 10 ng/mL, 6 hours; VR23 at IC50 concentration (between 2 and 4 μM), BTZ 6 nM, CFZ 1 nM. The method, then:
For comparison, BTZ (6 nM), CFZ (1 nM), and DEX (2 μM) were also included. *** is p<0.001, which denotes a significant difference from the TNF-α-only group, determined by a Dunnett's test. The values presented are the mean±SEM (n=3).
(§4) The enzyme-linked immunosorbent assay (ELISA) is a quantitative measurement based on sandwich-based enzyme linking, using a protein-specific capture antibody to determine the levels of single or multiple chemokines and cytokines.
The data in FIG. 12 show the levels of IL-8 secreted in the THP-1 culture medium in response to TNF-α alone (10 ng/mL) or in combination with varying concentrations (0.5, 1.0, 2, 4 or 6 μM) of VR23. For comparison, BTZ (6 nM), CFZ (1 nM) and DEX (2 μM) were also included. The measurement time was 6-hour post-stimulation. The measurement was carried out with a single-analyte ELISA.

The subject of series [3] is IL-6 and TNF-α secretion in human PBMC. The series is described as follows: IL-6 and TNF-α in PHA-p-stimulated human PBMC (ELISA). To be noted: PHA-p 10 μg/mL, 6 hours. Format: cell-based. The method, then: (§5) The values presented are the mean±SEM (n=2).
as §4
Data in FIG. 14 show the levels of IL-6 (upper plot) and TNF-α (lower plot) in human PBMC (1×10^6/mL cells) stimulated with 10 μg/mL phytohemagglutinin-p (PHA-p) (10 μg/mL) for 6 hours, in the absence (control) or presence of varying concentrations of VR23 (0.38, 0.75, 1.5, 3 or 6 μM) or BTZ (6.25, 12.5, 25 or 50 nM). The measurement was carried out with a single-analyte ELISA.

In series [4] the test system is IL-1β, TNF-α, IL-6 and IL-8 secretion in THP-1 cells. The series is described as follows: Cytokine secretion in LPS-stimulated THP-1 cells (ELISA). Format: cell-based, human. To be noted: THP-1, LPS 5 μg/mL, 6 hours; VR23 0.5-6 μM, BTZ 6 nM, CFZ 1 nM, DEX 2 μM. The method, then:
For comparison, BTZ (6 nM), CFZ (1 nM), and DEX (2 μM) were also included. *, **, and *** are p<0.05, p<0.01, and p<0.001, respectively, which denote a significant difference from the LPS-only group. The mean±SEM (n=3) values were determined by a Dunnett's test.
as §4
Data shown in FIG. 11 are the results of experiments carried out to investigate VR23's effect on the levels of inflammatory cytokines. […] For comparison, BTZ (6 nM), CFZ (1 nM) and DEX (2 μM) were also included. The levels of cytokine secreted in cell culture supernatants were measured by a single-analyte ELISA. The IC50 value of VR23 is 3 μM and the concentrations of BTZ, CFZ and DEX used are their respective IC50 values.

Series [5] deals with THP-1 monocytic cells. The series is described as follows: Sulforhodamine B (SRB) assay, IC50 on THP-1 cells. Format: cell-based, human. As to conditions: read-out: IC50. The method, then: as §1, §2, §3
The test system of series [6] is human fibroblast-like synoviocytes from rheumatoid arthritis patients (HFLS-RA). The series is described as follows: Viability test, HFLS-RA cells. To be noted: 6 hours, IL-1β 10 ng/mL, VR23 1.25-5.0 μM, HCQ 7.5-30 μM. Format: cell-based. The method, then: The values presented are the mean±SEM (n=3).
The CCK-8 assay was used to count viable cells under the various treatment conditions. Briefly, cells were cultured in 11 columns of a 96-well clustered plate, with 5,000 cells in 100 μL of culture medium per well, excluding one column for a media-only control. The plate was incubated overnight at 37° C. in the humidified conditions, followed by treatment with test compounds diluted in the culture medium (10 μL). Each column was treated with a different condition so that each treatment could have 8 repeats. […] The absorbance was measured using an automatic plate reader (Synergy H4 Hybrid Multi-Mode Microplate Reader, BioTek, Montreal, Canada) at 450 nm wavelength. The cell viability of each treatment sample was determined by using the following equation (%)=(Abstrtmt-Absmedia)/(AbsuT-Absmedia)*100, where Abstrtmt is the absorbance value of cells with the various treatment conditions; Absmedia is the absorbance of the well containing media only; AbsuT is the absorbance of the wells with untreated cells.
This finding was extended to human cells relevant to autoimmune diseases. […] Cytokine levels in cell culture supernatants were determined by a single-analyte ELISA. […] The cytokine secretion was measured in cell culture supernatants by a single-analyte ELISA.

The test system of series [7] is SW-982 synovial cell line. As to the kind of experiment: Sulforhodamine B (SRB) assay, IC50 on SW-982 cells. Format: cell-based. As to conditions: Homo sapiens; SW982 cells, 48 hours, SRB; read-out: IC50. The method, then: as §1, §2, §3
Series [8] deals with IL-6 secretion in HFLS-RA cells. As to the kind of experiment: IL-6 secretion in stimulated HFLS-RA cells (ELISA). Format: cell-based, human. To be noted: HFLS-RA, IL-1β 10 ng/mL, 6 hours; VR23 2.5-10 μM, HCQ 15 or 30 μM. The method, then:
(§6) The mean±SEM (n=3) values were determined by a Dunnett's test.
as §5, §4
(§7) This finding was extended to human cells relevant to autoimmune diseases. Human fibroblast-like synoviocytes (HFLS) are present in the synovial fluid of joint capsules and produce harmful molecules that contribute to joint destruction and the exacerbation of the disease in rheumatoid arthritis patients. […] The cells were then stimulated with IL-1β (FIG. 16) or LPS (FIG. 17), in the absence (control; IL-1β only) or presence of VR23 or HCQ. HCQ was included for comparison because it is often used to treat rheumatoid arthritis. […] For “VR23 only” samples, 5 μM VR23 was used. Fifty thousand HFLS cells per mL were used for the experiment. Cytokine levels in cell culture supernatants were determined by a single-analyte ELISA. […] Fifty thousand HFLS cells per mL were used for the experiment. The cytokine secretion was measured in cell culture supernatants by a single-analyte ELISA.

Series [9] concerns IL-6 secretion in HFLS-N cells. As to the kind of experiment: IL-6 secretion in stimulated HFLS-N cells (ELISA). Format: cell-based, human. To be noted: IL-1β 10 ng/mL, 6 hours, VR23 2.5-10 μM, HCQ 15 or 30 μM. The method, then:
as §6, §5, §4, §7

Series [10] deals with IL-6 secretion in SW-982 synovial cells. As to the kind of experiment: IL-6 secretion in IL-1β-stimulated SW-982 synovial cells (ELISA). Format: cell-based, human. As to conditions: SW-982, IL-1β 1 ng/mL, 6 hours; VR23 10 μM, HCQ 60 μM. The method, then: The mean±SEM (n=2) values were determined by a Dunnett's test.
as §4
The measurement was carried out with a single-analyte ELISA. […] While not wishing to be limited by theory, cytokine IL-6 is strongly implicated to the progress of rheumatoid arthritis^29.

As for `CC(C)C[C@H](NC(=O)[C@H](Cc1ccccc1)NC(=O)c1cnccn1)B(O)O` [BTZ, bortezomib, reference compound], the IC50 in [1] (48 hours) worked out at 5.86 ± 0.3 nM; in series [1] (Homo sapiens, 48 h), 6 nM; in [5] (48 hours), 5.91 ± 0.34 nM; in series [5] (Homo sapiens, THP-1, 48 h), 6 nM. The IL-8 secretion result in [2] is on record as “substantially reduced IL-8”. The “PHA-induced IL-6” value in series [3] (VR23 1.5 μM, BTZ 6 nM) is “reduced the level of IL-6”. In addition, the “PHA-induced TNF-α” value in series [3] (VR23 3.0 μM, BTZ 4× the IC50 dose) is on record as “largely ineffective in reducing the level of TNF-α”. Further, the “levels of inflammatory cytokines IL-1β, TNF-α, IL-6, IL-8” value in series [4] is given as “do not”.

For the molecule `CC(C)C[C@H](NC(=O)[C@H](CCc1ccccc1)NC(=O)CN1CCOCC1)C(=O)N[C@@H](Cc1ccccc1)C(=O)N[C@@H](CC(C)C)C(=O)[C@@]1(C)CO1` [CFZ, carfilzomib, reference compound], the IL-8 secretion entry in series [2] was “not effective at all”. Further, in [4], the “levels of inflammatory cytokines IL-1β, TNF-α, IL-6, IL-8” value is recorded as “do not”. In addition, the IC50 in series [5] (48 hours) was determined as 1.01 ± 0.11 nM; in [5] (Homo sapiens, THP-1, 48 h) it was 1 nM.

For the molecule `C[C@@H]1C[C@H]2[C@@H]3CCC4=CC(=O)C=C[C@]4(C)[C@@]3(F)[C@@H](O)C[C@]2(C)[C@@]1(O)C(=O)CO` [DEX, Dexamethasone], the IC50 stood at 2070 ± 67 nM in series [5] (48 hours) and 2000 nM in [5] (Homo sapiens, THP-1, 48 h).

Consider `CCN(CCO)CCCC(C)Nc1ccnc2cc(Cl)ccc12` (stereo not shown) [HCQ, hydroxychloroquine, reference compound], for which the cell viability entry in [6] was “none of the conditions examined significantly affected the viability”. In addition, the IC50 in [7] was 28.2 µM. The “IL-6 secretion, dose dependence” value in [8] and in [9] was “decreases in a dose dependent manner” in each case. Also, in [10], the “secretion of IL-6” value is listed as “comparable”.

The record behind these values is patent publication US11357774B2, “Use of a quinoline sulfonyl compound for treatment of inflammation, inflammatory disorders, autoimmune disorders and malaria” (priority 2019, dated 2022).
